{
  "source": "patent US20090227648A1",
  "about": "“PYRAZOLE DERIVATIVES USEFUL FOR THE TREATMENT OF CANCER” (AstraZeneca AB, priority 2004, published 2009)",
  "data": [
    {"target": "T1, human Trk A kinase (Homo sapiens, UniProt P04629)", "T1 construct": "HIS; made in house; host or cells: SF9 insect cells", "T1 sequence (P04629 442-796)": "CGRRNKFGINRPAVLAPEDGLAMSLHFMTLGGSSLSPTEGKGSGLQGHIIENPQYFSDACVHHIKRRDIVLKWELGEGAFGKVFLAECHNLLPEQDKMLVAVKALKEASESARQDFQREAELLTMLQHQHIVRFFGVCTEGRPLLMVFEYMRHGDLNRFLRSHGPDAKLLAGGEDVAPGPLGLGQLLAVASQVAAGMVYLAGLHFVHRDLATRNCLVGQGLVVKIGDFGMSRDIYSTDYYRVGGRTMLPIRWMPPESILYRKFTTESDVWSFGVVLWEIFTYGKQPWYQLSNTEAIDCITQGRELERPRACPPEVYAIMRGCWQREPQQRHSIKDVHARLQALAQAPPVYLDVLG", "test": "Trk A kinase Alphascreen assay", "format": "biochemical", "conditions": "intracellular domain of HIS-tagged human Trk A (aa 442-796), 70 μM ATP, 20 minutes, room temperature; read-out: Trk A inhibitory activity IC50", "description": "Trk A kinase activity was measured for its ability to phosphorylate synthetic tyrosine residues within a generic polypeptide substrate using an Amplified Luminescent Proximity Assay (Alphascreen) technology (PerkinEilmer, 549 Albany Street, Boston, Mass.).\nTo measure Trk A kinase activity, the intracellular domain of a HIS-tagged human Trk A kinase (amino acids 442-796 of Trk A, Swiss-Prot Primary Accession Number P04629) was expressed in SF9 cells and purified using standard nickel column chromatography. After incubation of the kinase with a biotinylated substrate and adenosine triphosphate (ATP) for 20 minutes at room temperature, the kinase reaction was stopped by the addition of 30 mM ethylenediaminetetraacetic acid (EDTA). The reaction was performed in 384 well microtitre plates and the reaction products were detected with the addition of strepavidin coated Donor Beads and phosphotyrosine-specific antibodies coated Acceptor Beads using the EnVision Multilabel Plate Reader after an overnight incubation at room temperature.", "units": {"IC50": "nM"}, "values": [
      {"smiles": "N#Cc1cc([N+](=O)[O-])c(Nc2cc(C3CC3)[nH]n2)cc1N[C@@H](CO)c1ccc(F)cc1", "note": "[Example 10, (R)-4-(5-Cyclopropyl-1H-pyrazol-3-ylamino)-2-(1-(4-fluorophenyl)-2-hydroxyethylamino)-5-nitrobenzonitrile]", "IC50": 859},
      {"smiles": "C[C@H](Nc1cc(Nc2cc(C3CC3)[nH]n2)c([N+](=O)[O-])cc1F)c1ccc(F)cc1", "note": "[Example 13, (S)—N^1-(5-Cyclopropyl-1H-pyrazol-3-yl)-4-fluoro-N^3-(1-(4-fluorophenyl)ethyl)-6-nitrobenzene-1,3-diamine]", "IC50": 426},
      {"smiles": "C[C@H](Nc1cc(NCCO)c([N+](=O)[O-])c(Nc2cc(C3CC3)[nH]n2)c1)c1ccc(F)cc1", "note": "[Example 17, (S)-2-(3-(5-Cyclopropyl-1H-pyrazol-3-ylamino)-5-(1-(4-fluorophenyl)ethylamino)-2-nitrophenylamino)ethanol]", "IC50": 1240}
    ]}
  ]
}
